Calls of active or inactive are those of the source. The rule behind the calls is not given here.
What was measured:
Aspergillus flavus [1] = assay: Antifungal activity against Aspergillus flavus assessed as inhibition of mycelial growth measured after 72 hr at 28 +/- 1 degC; assay type: functional, organism-based
Aspergillus flavus [2] = assay: Antifungal activity against Aspergillus flavus assessed as inhibition of mycelial growth measured after 72 hr at 0.8 mg/mL at 28 +/- 1 degC; assay type: functional, organism-based
[3] = tested on: Frankliniella occidentalis; assay: Insecticidal activity against Frankliniella occidentalis (western flower thrips) assessed as mortality at 1 ul/45mL; assay type: functional

## CC(C)[C@H]1CC[C@@H](C)CC1=O (relative stereo)
Aspergillus flavus [1]
  inhibition: inactive

## CC(C)[C@H]1CC[C@H](C)CC1=O (relative stereo)
Aspergillus flavus [1]
  inhibition: inactive

## CC(C)=C1CC[C@@H](C)CC1=O [PULEGONE]
Aspergillus flavus [2]
  inhibition: Active
[3]
  mortality: 100%

From ChEMBL document CHEMBL3046294, “Fungicidal properties of the essential oil of Hesperozygis marifolia on Aspergillus flavus link” (2011)
